We go through 30 compounds from EP4722205A1, “HETEROCYCLIC COMPOUND AND NOXIOUS ARTHROPOD-CONTROLLING COMPOSITION CONTAINING SAME” (Sumitomo Chemical Company, Limited, priority 2023, dated 2024).

Type in all cases: in vivo
Assay [1] has as its system cotton aphids (Aphis gossypii). Put plainly: Test Method 1: foliar spray on cucumber seedling infested with cotton aphids (Formulation example 1). The settings on record: 120 h, spray 10 mL/seedling, examined after 5 days, 25°C, read-out: controlling value.
The subject of assay [2] is cotton worm (Spodoptera litura). Put plainly: Test Method 3: sprayed cabbage leaves fed to second instar cotton worm. The conditions noted are these: 120 h, second instar larvae, after 5 days, 25°C, read-out: mortality of insects. The procedure:
(§1) The following tests in the test examples below were conducted at 25°C.
Cabbage (Brassicae oleracea) seedling (on the developmental stage of the second to third true leaf) is planted in a cup, and the diluted solutions are sprayed into the seedling at a ratio of 20 mL/seedling. Thereafter, the stem and leaf thereof are cut out and then is installed into a cup that is covered with filter paper on the bed of the cup. Five (5) cotton worm (Spodoptera litura) at the second instar larval stage are released into the cup. After 5 days, the number of the surviving insects is counted, and the mortality of insects is calculated by the following equation. [formula]

Assay [3] has as its system diamondback moth (Plutella xylostella). Put plainly: Test Method 4: sprayed cabbage leaves fed to second instar diamondback moth. The conditions noted are these: 120 h, second instar larvae, after 5 days, 25°C, read-out: mortality of insects. The method, then:
Next, an efficacy of the present compound on controlling harmful arthropods is shown by Test examples. The following tests in the test examples below were conducted at 25°C.
Test compounds are made to a formulation according to a similar method to that described in the Formulation example 1, and thereto is added water containing 0.03 v/v% of Shindain (registered trademark) to prepare a diluted solution containing a prescribed concentration of the test compound.
Cabbage (Brassicae oleracea) seedling (on the developmental stage of the second to third true leaf) is planted in a cup, and the diluted solutions are sprayed into the seedling at a ratio of 20 mL/seedling. Thereafter, the stem and leaf thereof are cut out and then is installed into a cup that is covered with filter paper on the bed of the cup. Five (5) diamondback moth (Plutella xylostella) at the second instar larval stage are released into the cup. After 5 days, the number of the surviving insects is counted, and the mortality of insects is calculated by the following equation. [formula]

The subject of assay [4] is cotton worm (Spodoptera litura). Put plainly: Test Method 9: sprayed cabbage seedling, third instar cotton worm (Formulation example 5). The conditions noted are these: 144 h, third instar larvae, after 6 days, 25°C, read-out: controlling value. The procedure:
as §1
Cabbage (Brassicae oleracea) seedling (on the developmental stage of the third to fourth true leaf) is planted in a cup, and the diluted solutions are sprayed into the seedling at a ratio of 20 mL/seedling. Thereafter, ten (10) cotton worm (Spodoptera litura) at the third instar larval stage are released onto the seedling. After 6 days, the number of the surviving insects is counted, and the mortality of insects is calculated by the following equation. [formula]

Assay [5] concerns diamondback moth (Plutella xylostella). Description: Test Method 10: sprayed cabbage seedling, third instar diamondback moth (Formulation example 5). The conditions noted are these: 144 h, third instar larvae, after 6 days, 25°C, read-out: controlling value. The method, then:
as §1
Cabbage (Brassicae oleracea) seedling (on the developmental stage of the third to fourth true leaf) is planted in a cup, and the diluted solutions are sprayed into the seedling at a ratio of 20 mL/seedling. Thereafter, ten (10) diamondback moth (Plutella xylostella) at the third instar larval stage are released onto the seedling. After 6 days, the number of the surviving insects is counted, and the mortality of insects is calculated by the following equation. [formula]

For assay [6], the system named is cotton aphids (Aphis gossypii). Description: Test Method 11: foliar spray on cucumber seedling infested with cotton aphids (Formulation example 5). The conditions noted are these: 120 h, spray 10 mL/seedling, examined after 5 days, 25°C, read-out: controlling value.

In the case of `CCSc1c(C(=O)N(C)c2nc3ccc(F)cc3s2)nc2ccc(I)cn12` [compound 2], the mortality at 500 ppm in assay [1] is not below 90%; in assay [2], not below 80%; in assay [3] it was not below 80%.
Turning to `CCSc1c(C(=O)N(C)c2nc3cc(F)ccc3s2)nc2ccc(I)cn12` [compound 3], the mortality at 500 ppm in assay [2] and in assay [3] was not below 80% each time.
As to `CCSc1c(C(=O)N(C)c2nc3cccc(F)c3o2)nc2ccc(I)cn12` [compound 18], the mortality at 500 ppm is not below 90% in assay [1] and not below 80% in assay [3].
As to `CCS(=O)(=O)c1c(C(=O)N(C)c2nc3cc(F)ccc3s2)nc2ccc(I)cn12` [compound 24], the mortality at 500 ppm in assay [1] was not below 90%; in assay [2] it was not below 80%; in assay [3], not below 80%. Further, the mortality at 50 ppm in assay [4] was not below 80%; in assay [5] it was not below 80%; in assay [6], not below 90%. Moreover, the results for the mortality at 200 ppm in assay [4], in assay [5] and in assay [6] were not below 80%, not below 80% and not below 90%, respectively.
With `CCS(=O)(=O)c1c(C(=O)N(C)c2nc3cccc(Cl)c3s2)nc2ccc(I)cn12` [compound 27], the mortality at 500 ppm in assay [1] is not below 90%; in assay [2] it was not below 80%. For the same compound, the mortality at 50 ppm in assay [4] is not below 80%; in assay [6], not below 90%. For the same compound, the mortality at 200 ppm was not below 80% in assay [4] and not below 90% in assay [6].
As for `CCS(=O)(=O)c1c(C(=O)N(C)c2nc3ccc(C)cc3s2)nc2ccc(I)cn12` [compound 32], the mortality at 500 ppm in assay [2] was not below 80%. Further, in assay [3], the mortality at 500 ppm was not below 80%. In assay [5], the mortality at 50 ppm was not below 80% and the mortality at 200 ppm is not below 80%.
On to `CCS(=O)(=O)c1c(C(=O)N(C)c2nc3cccc(F)c3o2)nc2ccc(I)cn12` [compound 39], for which the mortality at 500 ppm in assay [3] is not below 80%.
With `CCSc1cccnc1C(=O)N(C)c1nc2cc(C(F)(F)F)ccc2s1` [compound 49], the mortality at 500 ppm in assay [2] and in assay [3] was not below 80% throughout.
For `CCS(=O)(=O)c1cccnc1C(=O)N(C)c1nc2cc(C(F)(F)F)ccc2o1` [compound 54], the mortality at 500 ppm in assay [1] was not below 90%; in assay [3] it was not below 80%.
Take `CCS(=O)(=O)c1cccnc1C(=O)N(C)c1nc2cc(C(F)(F)F)ccc2s1` [compound 55]: the mortality at 500 ppm in assay [1] is not below 90%; in assay [3] it was not below 80%.
For `CCS(=O)(=O)c1cc(-c2ccc(C#N)cc2)cnc1C(=O)N(C)c1nc2cc(F)c(F)cc2s1` [compound 60], the mortality at 500 ppm in assay [3] was not below 80%.
Consider `CCSc1c(C(=O)N(C)c2nc3ccc(F)cc3n2C)nc2ccc(I)cn12` [compound 69], for which the mortality at 500 ppm in assay [1] is not below 90%; in assay [3] it was not below 80%. Also, the mortality at 50 ppm in assay [6] is not below 90%. Moreover, the mortality at 200 ppm in assay [6] was not below 90%.
With `CCS(=O)(=O)c1c(C(=O)N(C)c2nc3ccc(F)nc3s2)nc2ccc(I)cn12` [compound 75], the mortality at 500 ppm in assay [1] was not below 90%; in assay [2], not below 80%; in assay [3], not below 80%. For the same compound, the mortality at 200 ppm is not below 80% in assay [4], not below 80% in assay [5] and not below 90% in assay [6].
In the case of `CCS(=O)(=O)c1c(C(=O)N(C)c2nc3ccc(F)cc3n2C)nc2ccc(I)cn12` [compound 78], the mortality at 500 ppm is not below 90% in assay [1], not below 80% in assay [2] and not below 80% in assay [3]. Besides, the mortality at 200 ppm in assay [5] is not below 80%; in assay [6], not below 90%. In addition, the mortality at 50 ppm in assay [6] was not below 90%.
In the case of `CCS(=O)(=O)c1c(C(=O)N(C)c2nc3cc(F)ccc3n2C)nc2ccc(I)cn12` [compound 79], the mortality at 500 ppm was not below 90% in assay [1], not below 80% in assay [2] and not below 80% in assay [3]. For the same compound, the values for the mortality at 200 ppm in assay [4], in assay [5] and in assay [6] were not below 80%, not below 80% and not below 90%, respectively. Also, in assay [6], the mortality at 50 ppm was not below 90%.
Turning to `CCS(=O)(=O)c1c(C(=O)N(C)c2nc3cc(F)cc(F)c3s2)nc2ccc(I)cn12` [compound 80], the mortality at 500 ppm in assay [2] and in assay [3] was not below 80% each time. For the same compound, the mortality at 200 ppm in assay [4] and in assay [5] was not below 80% in each case.
For the compound `CCS(=O)(=O)c1c(C(=O)N(C)c2nc3cc(F)c(Cl)cc3s2)nc2ccc(I)cn12` [compound 81], the mortality at 500 ppm in assay [3] is not below 80%.
On to `CCN(C(=O)c1nc2ccc(I)cn2c1S(=O)(=O)CC)c1nc2cc(F)c(F)cc2s1` [compound 96], for which the mortality at 500 ppm was not below 90% in assay [1], not below 80% in assay [2] and not below 80% in assay [3]. For the same compound, the mortality at 50 ppm in assay [6] is not below 90%. The mortality at 200 ppm in assay [6] is not below 90%.
For `CCS(=O)(=O)c1c(C(=O)N(CC#N)c2nc3cc(F)c(F)cc3s2)nc2ccc(I)cn12` [compound 98], the mortality at 500 ppm in assay [3] is not below 80%.
Turning to `C#CCN(C(=O)c1nc2ccc(I)cn2c1S(=O)(=O)CC)c1nc2cc(F)c(F)cc2s1` [compound 99], in assay [3], the mortality at 500 ppm was not below 80%.
With `CCS(=O)(=O)c1c(C(=O)N(C)c2nc3cc(F)c(F)cc3s2)nc2ccc(C3CC3)cn12` [compound 102], the results for the mortality at 500 ppm in assay [1], in assay [2] and in assay [3] were not below 90%, not below 80% and not below 80%, respectively. In addition, the mortality at 50 ppm in assay [4] was not below 80%; in assay [5] it was not below 80%; in assay [6], not below 90%. Moreover, the mortality at 200 ppm in assay [4] is not below 80%; in assay [5], not below 80%; in assay [6], not below 90%.
For the compound `CCS(=O)(=O)c1cc(-n2cc(Cl)cn2)cnc1C(=O)N(C)c1nc2cc(F)c(F)cc2s1` [compound 112], the mortality at 500 ppm in assay [2] and in assay [3] was not below 80% each time. The mortality at 50 ppm in assay [4] was not below 80%. Also, the mortality at 200 ppm in assay [4] and in assay [5] was not below 80% throughout.
As for `CCS(=O)(=O)c1cccnc1C(=O)N(C)c1nc2cc(F)c(F)cc2s1` [compound 114], the mortality at 500 ppm in assay [2] and in assay [3] was not below 80% in each case.
For the compound `CCS(=O)(=O)c1cc(C(F)(F)F)ccc1C(=O)N(C)c1nc2cc(F)c(F)cc2s1` [compound 120], the mortality at 500 ppm in assay [2] and in assay [3] was not below 80% throughout. Further, the mortality at 50 ppm in assay [4] and in assay [5] was not below 80% each time. Moreover, the mortality at 200 ppm in assay [4] and in assay [5] was not below 80% throughout.
Turning to `CCCOc1cnc(C(=O)N(C)c2nc3cc(F)c(F)cc3s2)c(S(=O)(=O)CC)c1` [compound 126], the mortality at 500 ppm in assay [2] and in assay [3] was not below 80% in each case. Also, the mortality at 50 ppm in assay [4] is not below 80%. The mortality at 200 ppm was not below 80% in assay [4], not below 80% in assay [5] and not below 90% in assay [6].
For `CCS(=O)(=O)c1ccc(-c2ccccn2)nc1C(=O)N(C)c1nc2cc(F)c(F)cc2s1` [compound 133], the mortality at 500 ppm in assay [2] and in assay [3] was not below 80% in each case. For the same compound, the mortality at 50 ppm in assay [4] was not below 80%. The mortality at 200 ppm in assay [4] was not below 80%; in assay [5] it was not below 80%; in assay [6] it was not below 90%.
With `CCS(=O)(=O)c1ccc(Nc2ccc(C)cc2)nc1C(=O)N(C)c1nc2cc(F)c(F)cc2s1` [compound 137], the mortality at 500 ppm in assay [3] was not below 80%.
Take `CCS(=O)(=O)c1c(C(=O)N(C)c2nc3cc(F)c(F)cc3s2)nc(Br)n1C` [compound 140]: the mortality at 500 ppm in assay [3] was not below 80%. In assay [5], the mortality at 200 ppm is not below 80%.
For the compound `CCS(=O)(=O)c1c(C(=O)N(C)c2nc3cc(F)c(F)cc3s2)nc(-c2cnn(C(F)F)c2)n1C` [compound 143], the mortality at 500 ppm in assay [2] and in assay [3] was not below 80% each time.
`CCS(=O)(=O)c1c(C(=O)N(C)c2nc3cc(Cl)c(F)cc3s2)nn(C)c1C1CC1` [compound 145]: the mortality at 500 ppm in assay [3] is not below 80%. Moreover, the mortality at 200 ppm in assay [5] is not below 80%.
